Measured values taken from ChEMBL document CHEMBL4028893, “Discovery and Optimization of Potent, Cell-Active Pyrazole-Based Inhibitors of Lactate Dehydrogenase (LDH)” (J Med Chem, 2017).
pEC50, pIC50: −log10 of the molar value. Active and inactive are the calls of the source. The calls are words filed in the database; no cut-off is given here.

Columns and labels:
A673 [1] = assay: Cytotoxicity against human A673 cells assessed as long term cell growth inhibition measured every 4 hrs for 120 hrs by incucyte zoom live cell analysis; assay type: functional, cell-based
[2] = Inhibition of pig heart MDH using malic acid as substrate preincubated for 10 mins followed by substrate addition measured up to 5 mins by resorufin-based fluorescence assay; design: species or system Sus scrofa
[3] = target: L-lactate dehydrogenase B chain (Homo sapiens, UniProt P07195); assay: Inhibition of human erythrocytes LDHB using sodium pyruvate as substrate after 5 mins in presence of […] by diaphorase/resazurin based fluorescence assay
Chain of L-lactate dehydrogenase B chain (P07195 whole entry): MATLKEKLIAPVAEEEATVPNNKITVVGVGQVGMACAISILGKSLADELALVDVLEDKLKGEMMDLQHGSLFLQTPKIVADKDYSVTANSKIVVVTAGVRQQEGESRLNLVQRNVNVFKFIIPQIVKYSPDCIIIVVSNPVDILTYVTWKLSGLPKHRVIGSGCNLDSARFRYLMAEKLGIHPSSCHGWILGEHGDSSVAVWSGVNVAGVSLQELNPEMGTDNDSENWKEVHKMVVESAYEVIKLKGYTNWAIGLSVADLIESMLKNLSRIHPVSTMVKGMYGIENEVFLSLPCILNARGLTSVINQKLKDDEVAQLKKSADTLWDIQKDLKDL

[4] = target: Isocitrate dehydrogenase [NADP] cytoplasmic (Homo sapiens, UniProt O75874); assay: Inhibition of wild type IDH1 (unknown origin) using isocitrate as substrate preincubated for 30 mins followed by substrate addition in presence of NADP+ measured up to 5 mins by resorufin-based fluorescence assay
Chain of Isocitrate dehydrogenase [NADP] cytoplasmic (O75874 whole entry): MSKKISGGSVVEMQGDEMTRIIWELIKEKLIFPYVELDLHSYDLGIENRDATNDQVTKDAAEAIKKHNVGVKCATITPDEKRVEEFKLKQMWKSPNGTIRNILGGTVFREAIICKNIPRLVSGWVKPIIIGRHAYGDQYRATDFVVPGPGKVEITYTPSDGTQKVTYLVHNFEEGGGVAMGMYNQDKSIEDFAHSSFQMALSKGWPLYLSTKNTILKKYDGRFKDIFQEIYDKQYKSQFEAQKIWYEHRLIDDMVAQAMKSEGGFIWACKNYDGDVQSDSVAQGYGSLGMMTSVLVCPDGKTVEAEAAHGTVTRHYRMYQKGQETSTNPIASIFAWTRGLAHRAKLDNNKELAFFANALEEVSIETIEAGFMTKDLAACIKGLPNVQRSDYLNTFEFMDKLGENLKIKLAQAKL

MIA PaCa-2 [5] = assay: Cytotoxicity against human MIAPaCa2 cells assessed as long term cell growth inhibition measured every 4 hrs for 120 hrs by incucyte zoom live cell analysis; assay type: functional, cell-based
[6] = Drug level in human A673 cells by LC-MS/MS analysis; assay type: ADME, cell-based
[7] = Drug level in human MIAPaCa2 cells by LC-MS/MS analysis; assay type: ADME, cell-based; conditions: mia paca-2
[8] = target: T1, L-lactate dehydrogenase A chain (Homo sapiens, UniProt P00338)
[9] = target: T1, L-lactate dehydrogenase A chain; remark: listed apart in the source
Description: Inhibition of human liver LDHA using sodium pyruvate as substrate after 5 mins in presence of NAPDH and EDTA by diaphorase/resazurin based fluorescence assay

A673 [10] = assay: Cytotoxicity against human A673 cells after 48 hrs by CellTiter-Glo assay; conditions: A673, 48 h
MIA PaCa-2 [11] = assay: Cytotoxicity against human MIAPaCa2 cells after 48 hrs by CellTiter-Glo assay; conditions: MIA PaCa-2, 48 h
[12] = target: T1, L-lactate dehydrogenase A chain; remark: listed apart in the source
Description: (§1) Inhibition of human liver LDHA using sodium pyruvate as substrate after 5 mins in presence of NAPDH and in absence of EDTA by diaphorase/resazurin based fluorescence assay

L-lactate dehydrogenase [13] = target: T2, L-lactate dehydrogenase (Homo sapiens, UniProt V9HWB9); assay: Inhibition of LDH in human MIAPaCa2 cells assessed as reduction in lactate production preincubated for 2 hrs measured after 30 mins by high throughput fluorescence assay; assay type: cell-based
L-lactate dehydrogenase [14] = target: T2, L-lactate dehydrogenase; assay: Inhibition of LDH in human A673 cells assessed as reduction in lactate production preincubated for 2 hrs measured after 30 mins by high throughput fluorescence assay; assay type: cell-based
[15] = target: T1, L-lactate dehydrogenase A chain; remark: listed apart in the source
Description: as §1

Mus musculus [16] = assay: Clearance in CD1 mouse plasma at 2 mg/kg, iv measured over 24 hrs post dose by LC/MS/MS analysis; assay type: ADME, organism-based; conditions: in vivo
Liver [17] = assay: Drug metabolism in mouse liver microsomes assessed as glucuronidated metabolite formation measured over 90 mins in presence of NADPH/UDPGA; assay type: ADME, microsome
Liver [18] = assay: Drug metabolism in human liver microsomes assessed as glucuronidated metabolite formation measured over 90 mins in presence of NADPH/UDPGA; assay type: ADME, microsome
Mus musculus [19] = assay: AUClast in CD1 mouse plasma at 2 mg/kg, iv measured over 24 hrs post dose by LC/MS/MS analysis; assay type: ADME, organism-based; design: dose 2 mg/kg, time 0 - last, route intravenous; conditions: in vivo
Mus musculus [20] = assay: Volume of distribution at steady state in CD1 mouse plasma at 2 mg/kg, iv measured over 24 hrs post dose by LC/MS/MS analysis; assay type: ADME, organism-based; conditions: in vivo
Mus musculus [21] = assay: Cmax in CD1 mouse plasma at 50 mg/kg, po measured over 24 hrs post dose by LC/MS/MS analysis; assay type: ADME, organism-based; design: dose 50 mg/kg, route oral; conditions: in vivo
Mus musculus [22] = assay: AUClast in CD1 mouse plasma at 50 mg/kg, po measured over 24 hrs post dose by LC/MS/MS analysis; assay type: ADME, organism-based; design: dose 50 mg/kg, time 0 - last, route oral; conditions: in vivo
Mus musculus [23] = assay: Oral bioavailability in CD1 mouse plasma at 50 mg/kg measured over 24 hrs post dose by LC/MS/MS analysis; assay type: ADME, organism-based; conditions: in vivo
MIA PaCa-2 [24] = assay: Cytoxicity against human MIAPaCa2 cells assessed as cell growth inhibition at 20 uM after 48 hrs by CellTiter-Glo assay; assay type: functional, cell-based

| SMILES | pIC50 [2] | pIC50 [3] | pIC50 [4] | Drug uptake [6] | Drug uptake [7] | pIC50 [9] | pIC50 (A673 [10]) | pIC50 [12] | also measured |
| --- | --- | --- | --- | --- | --- | --- | --- | --- | --- |
| Cc1nc2ccc(NC(=O)CCNC(=O)CCCc3ccc(CC(C(=O)O)C(=O)O)cc3)cc2s1 | < 4.24 | 5.04 | < 4.24 | Active | Active | 5.87 | – | – | pIC50 (A673 [1]): < 4.70; pIC50 (MIA PaCa-2 [5]): < 4.70; pEC50 [8]: 5.80 |
| NS(=O)(=O)c1ccc(Cc2c(-c3ccc(F)c(F)c3)nn(-c3nc(C(=O)O)cs3)c2O)cc1 | < 4.24 | – | < 4.24 | Active | Active | – | < 4.24 | – | pIC50 (MIA PaCa-2 [11]): < 4.24 |
| NS(=O)(=O)c1ccc(Cc2cn(-c3nc(C(=O)O)cs3)nc2-c2ccc(F)c(F)c2)cc1 | < 4.24 | 6.89 | < 4.24 | Active | Active | 7.02 | < 4.24 | 7.02 | – |
| O=C(O)c1csc(-n2nc(-c3ccccc3)cc2C(F)(F)F)n1 | – | – | – | – | – | 4.54 | – | 4.65 | inhibition (L-lactate dehydrogenase [13]): inactive; inhibition (L-lactate dehydrogenase [14]): inactive; pEC50 [8]: < 4.00; Efficacy [15]: 40 to 60% |
| NS(=O)(=O)c1ccc(Cc2c(-c3cccc(-c4ccccc4)c3)nn(-c3nc(C(=O)O)cs3)c2C2CC2)cc1 | 4.37 | – | 4.47 | Active | Active | – | – | – | CL (Mus musculus [16]): 227 L/h/kg; Drug metabolism (Liver [17]): Metabolite_Notdetected; Drug metabolism (Liver [18]): Metabolite_Notdetected; AUClast (Mus musculus [19]): 0.26 µM·h; Vdss (Mus musculus [20]): 5.6 L/kg; Cmax (Mus musculus [21]): 1200 nM; AUClast (Mus musculus [22]): 3.2 µM·h; F (Mus musculus [23]): 49% |
| NS(=O)(=O)c1ccc(Cc2c(-c3ccccc3)nn(-c3nc(C(=O)O)cs3)c2-c2ccncc2)cc1 | < 4.24 | 5.55 | < 4.24 | Active | Active | 5.21 | – | 5.21 | – |
| NS(=O)(=O)c1ccc(Cc2c(-c3cccc(-c4ccccc4)c3)nn(-c3nc(C(=O)O)cs3)c2CC2CC2)cc1 | – | – | 4.53 | Active | Active | – | – | – | CL (Mus musculus [16]): 294 L/h/kg; growth inhibition (GI) (MIA PaCa-2 [24]): Active; Drug metabolism (Liver [17]): Metabolite_Notdetected; Drug metabolism (Liver [18]): Metabolite_Notdetected; AUClast (Mus musculus [19]): 0.19 µM·h; Vdss (Mus musculus [20]): 27 L/kg; Cmax (Mus musculus [21]): 1780 nM; AUClast (Mus musculus [22]): 2.5 µM·h; F (Mus musculus [23]): 50% |
| NS(=O)(=O)c1ccc(Cc2c(-c3cccc(Br)c3)nn(-c3nc(C(=O)O)cs3)c2O)cc1 | – | 5.82 | < 4.24 | Active | Active | – | – | – | – |
| COc1ncc(-c2ccc3c(Nc4cc(Oc5cc(F)cc(F)c5)cc(C(=O)O)c4)c(S(=O)(=O)NC4CC4)cnc3c2)c(OC)n1 | 4.42 | – | < 4.24 | Active | Active | – | < 4.24 | – | pIC50 (A673 [1]): 6.08; pIC50 (L-lactate dehydrogenase [13]): 4.90; pIC50 (L-lactate dehydrogenase [14]): 4.84; pIC50 (MIA PaCa-2 [11]): 4.55; pIC50 (MIA PaCa-2 [5]): 5.86 |
| NS(=O)(=O)c1ccc(Cc2cn(-c3nc(C(=O)O)cs3)nc2-c2ccccc2)cc1 | < 4.24 | – | < 4.24 | Active | Active | 6.75 | – | 6.75 | – |
